# Calls of active or inactive are those of the source.
# How the values were obtained:
# P388/ADR = experiment: cells; type: functional; settings: Mus musculus
# P388 = experiment: cells; type: functional; settings: Mus musculus
# SN12K1 = experiment: cells; type: functional; settings: Homo sapiens
# [1] = molecular target: Eukaryotic translation initiation factor 4E (Mus musculus, UniProt P63073); experiment: blockers of eIF4G binding by eIF4E – biochemical, TR-FRET, dose response (AID 855); type: functional;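 also: potency for disrupting eIF4E binding to eIF4GI seen as loss of FRET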
# Estrogen receptor beta = Estrogen receptor beta (Homo sapiens, UniProt Q92731);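 also: recombinant ER-beta bound to coactivator SRC1 peptide in presence of estradiol agonist; inhibitors block coactivator peptide binding and lower the FRET signal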
# [2] = molecular target: T1, Short transient receptor potential channel 4 (Mus musculus, UniProt Q9QUQ5); experiment: calcium entry via TRPC4 opening agents – cell-based, HEK293 TRPC4/mu-opioid, Fluo-4 calcium, dose response (AID 434937); type: functional
# T1 sequence (Q9QUQ5 whole entry): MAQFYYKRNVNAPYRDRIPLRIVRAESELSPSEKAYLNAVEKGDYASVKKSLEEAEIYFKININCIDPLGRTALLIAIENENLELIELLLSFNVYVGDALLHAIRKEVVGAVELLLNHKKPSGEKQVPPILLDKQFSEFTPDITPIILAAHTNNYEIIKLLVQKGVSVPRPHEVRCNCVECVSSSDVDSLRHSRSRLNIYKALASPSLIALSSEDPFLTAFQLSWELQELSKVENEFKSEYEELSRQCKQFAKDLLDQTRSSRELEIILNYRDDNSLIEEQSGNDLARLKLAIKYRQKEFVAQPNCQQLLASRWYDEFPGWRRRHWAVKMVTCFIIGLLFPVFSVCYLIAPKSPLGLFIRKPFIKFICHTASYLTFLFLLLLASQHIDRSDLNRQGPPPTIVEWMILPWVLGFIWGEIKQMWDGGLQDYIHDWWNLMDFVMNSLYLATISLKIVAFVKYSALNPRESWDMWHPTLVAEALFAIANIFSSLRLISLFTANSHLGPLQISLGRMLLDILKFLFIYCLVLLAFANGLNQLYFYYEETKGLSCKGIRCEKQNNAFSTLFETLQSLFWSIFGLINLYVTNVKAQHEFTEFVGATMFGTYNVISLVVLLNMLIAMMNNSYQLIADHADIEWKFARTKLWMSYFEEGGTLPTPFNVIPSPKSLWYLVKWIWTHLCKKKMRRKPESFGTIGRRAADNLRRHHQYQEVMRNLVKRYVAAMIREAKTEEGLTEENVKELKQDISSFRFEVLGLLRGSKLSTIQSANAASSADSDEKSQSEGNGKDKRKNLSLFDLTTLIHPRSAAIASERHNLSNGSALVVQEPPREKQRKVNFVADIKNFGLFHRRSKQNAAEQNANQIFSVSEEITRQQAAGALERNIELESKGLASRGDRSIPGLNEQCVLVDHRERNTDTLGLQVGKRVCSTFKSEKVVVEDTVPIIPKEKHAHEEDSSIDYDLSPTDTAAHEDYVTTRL
# [3] = molecular target: T2, Long-chain-fatty-acid--AMP ligase FadD28 (Mycobacterium tuberculosis, UniProt P9WQ59); experiment: Fluorescence polarization aasay to screen for inhibitors that compete for the binding of FadD28 to a bisubstrate Measured in Biochemical System Using Plate Reader - 2147-01_Inhibitor_Dose_CherryPick_Activity.; type: functional, Mycobacterium tuberculosis H37Rv
# T2 sequence (P9WQ59 whole entry): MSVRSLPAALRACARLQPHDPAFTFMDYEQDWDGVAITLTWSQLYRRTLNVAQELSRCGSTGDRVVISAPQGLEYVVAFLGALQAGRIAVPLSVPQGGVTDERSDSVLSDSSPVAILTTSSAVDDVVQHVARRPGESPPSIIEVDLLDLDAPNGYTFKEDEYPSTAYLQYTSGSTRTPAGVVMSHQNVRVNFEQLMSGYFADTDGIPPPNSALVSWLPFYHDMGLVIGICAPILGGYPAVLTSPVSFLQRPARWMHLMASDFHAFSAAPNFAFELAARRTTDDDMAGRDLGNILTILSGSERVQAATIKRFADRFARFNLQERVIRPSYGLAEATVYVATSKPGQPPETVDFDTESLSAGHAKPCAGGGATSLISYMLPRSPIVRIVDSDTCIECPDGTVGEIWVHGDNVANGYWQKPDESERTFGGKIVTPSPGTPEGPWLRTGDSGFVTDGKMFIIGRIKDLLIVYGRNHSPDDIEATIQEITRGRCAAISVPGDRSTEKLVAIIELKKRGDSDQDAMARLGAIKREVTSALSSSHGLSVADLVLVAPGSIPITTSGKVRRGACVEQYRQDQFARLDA
# SUMO-activating enzyme = SUMO-activating enzyme (Homo sapiens, UniProt Q9UBT2); experiment: blockers of UBC9-mediated SUMO conjugation – biochemical, AlphaScreen, SUMOylation inhibitor project, confirmation (AID 2018); type: functional
# [4] = molecular target: T3, Mannose-6-phosphate isomerase (Homo sapiens, UniProt P34949); experiment: MPI inhibition at elevated mannose 6-phosphate – biochemical, fluorescence intensity, high mannose 6-phosphate, primary screen (AID 1220)
# T3 sequence (P34949 whole entry): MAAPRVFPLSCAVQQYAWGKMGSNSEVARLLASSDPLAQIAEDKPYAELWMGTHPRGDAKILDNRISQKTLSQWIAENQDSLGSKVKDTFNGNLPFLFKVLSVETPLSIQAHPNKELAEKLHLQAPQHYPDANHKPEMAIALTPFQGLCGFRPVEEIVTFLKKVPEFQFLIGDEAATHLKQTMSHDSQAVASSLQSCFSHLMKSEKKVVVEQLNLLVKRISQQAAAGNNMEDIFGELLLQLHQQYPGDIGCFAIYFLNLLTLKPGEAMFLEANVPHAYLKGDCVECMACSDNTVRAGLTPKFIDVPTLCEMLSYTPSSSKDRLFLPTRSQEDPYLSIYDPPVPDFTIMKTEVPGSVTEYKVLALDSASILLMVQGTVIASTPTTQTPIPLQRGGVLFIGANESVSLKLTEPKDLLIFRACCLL
# [5] = molecular target: T4, DNA repair protein RAD52 homolog (Homo sapiens, UniProt P43351); type: functional, biochemical
# T4 sequence (P43351 whole entry): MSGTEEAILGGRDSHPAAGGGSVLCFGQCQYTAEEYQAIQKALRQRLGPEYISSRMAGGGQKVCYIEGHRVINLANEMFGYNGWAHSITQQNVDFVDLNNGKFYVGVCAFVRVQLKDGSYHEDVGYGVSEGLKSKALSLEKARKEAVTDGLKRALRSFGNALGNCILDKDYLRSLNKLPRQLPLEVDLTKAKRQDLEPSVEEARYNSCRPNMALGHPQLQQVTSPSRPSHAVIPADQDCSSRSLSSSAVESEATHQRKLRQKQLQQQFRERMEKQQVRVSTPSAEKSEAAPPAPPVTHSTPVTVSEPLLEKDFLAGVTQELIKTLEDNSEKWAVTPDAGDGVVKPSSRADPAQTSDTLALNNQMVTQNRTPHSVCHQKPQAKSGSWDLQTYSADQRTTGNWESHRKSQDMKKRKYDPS
# [6] = molecular target: T5, Histone-lysine N-methyltransferase NSD2 (Homo sapiens, UniProt O96028); type: biochemical
# T5 sequence (O96028 whole entry): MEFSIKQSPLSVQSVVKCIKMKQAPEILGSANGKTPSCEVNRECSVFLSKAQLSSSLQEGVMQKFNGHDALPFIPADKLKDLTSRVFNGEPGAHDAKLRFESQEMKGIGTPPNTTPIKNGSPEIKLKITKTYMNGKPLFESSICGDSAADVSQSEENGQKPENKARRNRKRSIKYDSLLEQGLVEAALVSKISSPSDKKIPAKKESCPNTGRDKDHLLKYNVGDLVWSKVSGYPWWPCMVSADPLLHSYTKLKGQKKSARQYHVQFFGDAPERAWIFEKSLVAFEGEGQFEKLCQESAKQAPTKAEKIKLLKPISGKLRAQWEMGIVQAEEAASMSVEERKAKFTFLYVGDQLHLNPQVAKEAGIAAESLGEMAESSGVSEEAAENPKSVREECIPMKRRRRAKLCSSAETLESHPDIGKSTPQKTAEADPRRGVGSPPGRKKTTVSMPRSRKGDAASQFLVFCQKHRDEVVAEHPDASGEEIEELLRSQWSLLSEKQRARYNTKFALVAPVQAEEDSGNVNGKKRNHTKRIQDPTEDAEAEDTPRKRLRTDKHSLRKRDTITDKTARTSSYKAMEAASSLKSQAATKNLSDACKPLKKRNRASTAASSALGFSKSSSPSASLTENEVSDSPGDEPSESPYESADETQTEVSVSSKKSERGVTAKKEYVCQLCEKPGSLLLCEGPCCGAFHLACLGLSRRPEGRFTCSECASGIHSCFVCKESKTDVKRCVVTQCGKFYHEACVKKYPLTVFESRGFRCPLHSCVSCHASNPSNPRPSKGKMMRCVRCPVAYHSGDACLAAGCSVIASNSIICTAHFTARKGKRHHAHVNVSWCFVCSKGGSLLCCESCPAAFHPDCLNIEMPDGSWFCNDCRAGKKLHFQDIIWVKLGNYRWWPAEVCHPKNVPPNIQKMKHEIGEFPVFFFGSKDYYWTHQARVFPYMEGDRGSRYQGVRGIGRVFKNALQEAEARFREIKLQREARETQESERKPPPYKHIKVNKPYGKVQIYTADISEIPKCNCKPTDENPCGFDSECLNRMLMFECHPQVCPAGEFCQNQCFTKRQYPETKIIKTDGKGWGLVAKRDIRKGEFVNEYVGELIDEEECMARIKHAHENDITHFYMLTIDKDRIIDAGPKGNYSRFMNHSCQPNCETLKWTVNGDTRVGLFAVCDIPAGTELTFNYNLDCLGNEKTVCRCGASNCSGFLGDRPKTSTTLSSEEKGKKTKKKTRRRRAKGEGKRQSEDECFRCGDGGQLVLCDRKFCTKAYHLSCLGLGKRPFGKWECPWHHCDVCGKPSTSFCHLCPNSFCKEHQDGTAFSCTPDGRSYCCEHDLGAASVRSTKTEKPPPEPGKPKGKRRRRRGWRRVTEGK
# [7] = viability of uninfected HEp-2 cells – cell-based, HTS, cytotoxicity control for RSV inhibitor project, dose response (AID 2410); type: functional; settings: human respiratory syncytial virus
# Vero [8] = experiment: cells; type: functional; settings: Chlorocebus sabaeus
# Vero [9] = experiment: cells; type: functional, cell-based; settings: Chlorocebus sabaeus
# [10] = molecular target: FAD-linked sulfhydryl oxidase ALR (Homo sapiens, UniProt P55789); experiment: ALR-catalysed DTT oxidation blockers – biochemical, H2O2 detection, luminescence, cherry-pick, dose response (AID 493248)
# [11] = molecular target: Voltage-dependent T-type calcium channel subunit alpha-1H (Homo sapiens, UniProt O95180); type: functional;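 also: channel activity triggered by adding a high calcium stimulation buffer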
# Vero [12] = experiment: viability of Vero cells under compound – cytotoxicity control for flavivirus capping enzyme inhibitors (AID 588742); type: functional; settings: Chlorocebus sabaeus
# Sequence of Estrogen receptor beta (Q92731 whole entry): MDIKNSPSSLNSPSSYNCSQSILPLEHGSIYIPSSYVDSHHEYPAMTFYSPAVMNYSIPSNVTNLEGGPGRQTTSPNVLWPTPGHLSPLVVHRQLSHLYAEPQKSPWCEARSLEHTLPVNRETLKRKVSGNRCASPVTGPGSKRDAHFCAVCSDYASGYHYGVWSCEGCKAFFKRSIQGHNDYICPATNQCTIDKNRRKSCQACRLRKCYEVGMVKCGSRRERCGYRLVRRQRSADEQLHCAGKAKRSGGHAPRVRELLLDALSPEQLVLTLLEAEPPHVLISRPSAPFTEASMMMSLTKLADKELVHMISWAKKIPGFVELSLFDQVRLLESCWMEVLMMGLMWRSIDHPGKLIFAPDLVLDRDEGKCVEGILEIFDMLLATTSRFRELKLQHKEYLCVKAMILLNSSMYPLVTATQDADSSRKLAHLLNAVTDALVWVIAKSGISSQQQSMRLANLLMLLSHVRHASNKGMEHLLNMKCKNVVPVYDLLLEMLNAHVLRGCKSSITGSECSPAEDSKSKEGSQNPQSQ
# Sequence of Eukaryotic translation initiation factor 4E (P63073 whole entry): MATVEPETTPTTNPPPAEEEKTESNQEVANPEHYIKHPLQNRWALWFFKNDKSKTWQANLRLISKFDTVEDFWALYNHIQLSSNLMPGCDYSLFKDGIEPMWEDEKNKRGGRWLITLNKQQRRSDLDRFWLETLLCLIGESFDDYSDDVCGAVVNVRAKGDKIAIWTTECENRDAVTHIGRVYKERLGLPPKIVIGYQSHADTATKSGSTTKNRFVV
# Sequence of SUMO-activating enzyme (Q9UBE0 whole entry): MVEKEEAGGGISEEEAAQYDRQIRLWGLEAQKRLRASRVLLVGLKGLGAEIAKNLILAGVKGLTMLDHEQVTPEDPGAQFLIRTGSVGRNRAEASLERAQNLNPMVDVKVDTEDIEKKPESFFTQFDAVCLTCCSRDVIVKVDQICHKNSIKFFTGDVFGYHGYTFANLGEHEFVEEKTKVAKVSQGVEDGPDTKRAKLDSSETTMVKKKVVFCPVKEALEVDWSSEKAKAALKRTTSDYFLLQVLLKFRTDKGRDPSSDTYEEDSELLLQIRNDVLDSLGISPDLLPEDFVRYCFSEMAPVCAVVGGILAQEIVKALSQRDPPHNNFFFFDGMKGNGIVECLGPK
# Sequence of SUMO-activating enzyme (Q9UBT2 whole entry): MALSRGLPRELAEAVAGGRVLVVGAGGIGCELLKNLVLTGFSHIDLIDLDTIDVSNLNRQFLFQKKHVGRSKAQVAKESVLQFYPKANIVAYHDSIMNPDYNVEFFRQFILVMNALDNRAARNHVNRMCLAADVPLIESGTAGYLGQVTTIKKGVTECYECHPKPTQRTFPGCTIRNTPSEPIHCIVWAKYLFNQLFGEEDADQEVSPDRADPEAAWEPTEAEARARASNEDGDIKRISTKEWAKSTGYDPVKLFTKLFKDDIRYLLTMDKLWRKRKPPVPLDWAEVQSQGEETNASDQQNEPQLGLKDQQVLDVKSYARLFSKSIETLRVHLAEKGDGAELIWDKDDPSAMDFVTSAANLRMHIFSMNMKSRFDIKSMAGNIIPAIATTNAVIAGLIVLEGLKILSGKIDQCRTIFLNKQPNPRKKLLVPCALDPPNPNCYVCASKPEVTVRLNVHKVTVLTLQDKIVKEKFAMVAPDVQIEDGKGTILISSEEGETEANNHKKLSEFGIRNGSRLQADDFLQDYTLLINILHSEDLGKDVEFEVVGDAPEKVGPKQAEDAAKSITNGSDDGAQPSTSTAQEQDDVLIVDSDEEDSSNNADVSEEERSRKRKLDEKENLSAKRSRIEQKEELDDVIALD
# Sequence of FAD-linked sulfhydryl oxidase ALR (P55789 whole entry): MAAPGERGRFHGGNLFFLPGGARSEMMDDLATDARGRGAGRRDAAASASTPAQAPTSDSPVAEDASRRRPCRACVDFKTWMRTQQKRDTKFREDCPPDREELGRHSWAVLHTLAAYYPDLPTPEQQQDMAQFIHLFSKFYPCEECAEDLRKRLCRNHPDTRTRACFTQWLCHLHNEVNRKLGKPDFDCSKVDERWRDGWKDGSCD
# Sequence of Voltage-dependent T-type calcium channel subunit alpha-1H (O95180 whole entry): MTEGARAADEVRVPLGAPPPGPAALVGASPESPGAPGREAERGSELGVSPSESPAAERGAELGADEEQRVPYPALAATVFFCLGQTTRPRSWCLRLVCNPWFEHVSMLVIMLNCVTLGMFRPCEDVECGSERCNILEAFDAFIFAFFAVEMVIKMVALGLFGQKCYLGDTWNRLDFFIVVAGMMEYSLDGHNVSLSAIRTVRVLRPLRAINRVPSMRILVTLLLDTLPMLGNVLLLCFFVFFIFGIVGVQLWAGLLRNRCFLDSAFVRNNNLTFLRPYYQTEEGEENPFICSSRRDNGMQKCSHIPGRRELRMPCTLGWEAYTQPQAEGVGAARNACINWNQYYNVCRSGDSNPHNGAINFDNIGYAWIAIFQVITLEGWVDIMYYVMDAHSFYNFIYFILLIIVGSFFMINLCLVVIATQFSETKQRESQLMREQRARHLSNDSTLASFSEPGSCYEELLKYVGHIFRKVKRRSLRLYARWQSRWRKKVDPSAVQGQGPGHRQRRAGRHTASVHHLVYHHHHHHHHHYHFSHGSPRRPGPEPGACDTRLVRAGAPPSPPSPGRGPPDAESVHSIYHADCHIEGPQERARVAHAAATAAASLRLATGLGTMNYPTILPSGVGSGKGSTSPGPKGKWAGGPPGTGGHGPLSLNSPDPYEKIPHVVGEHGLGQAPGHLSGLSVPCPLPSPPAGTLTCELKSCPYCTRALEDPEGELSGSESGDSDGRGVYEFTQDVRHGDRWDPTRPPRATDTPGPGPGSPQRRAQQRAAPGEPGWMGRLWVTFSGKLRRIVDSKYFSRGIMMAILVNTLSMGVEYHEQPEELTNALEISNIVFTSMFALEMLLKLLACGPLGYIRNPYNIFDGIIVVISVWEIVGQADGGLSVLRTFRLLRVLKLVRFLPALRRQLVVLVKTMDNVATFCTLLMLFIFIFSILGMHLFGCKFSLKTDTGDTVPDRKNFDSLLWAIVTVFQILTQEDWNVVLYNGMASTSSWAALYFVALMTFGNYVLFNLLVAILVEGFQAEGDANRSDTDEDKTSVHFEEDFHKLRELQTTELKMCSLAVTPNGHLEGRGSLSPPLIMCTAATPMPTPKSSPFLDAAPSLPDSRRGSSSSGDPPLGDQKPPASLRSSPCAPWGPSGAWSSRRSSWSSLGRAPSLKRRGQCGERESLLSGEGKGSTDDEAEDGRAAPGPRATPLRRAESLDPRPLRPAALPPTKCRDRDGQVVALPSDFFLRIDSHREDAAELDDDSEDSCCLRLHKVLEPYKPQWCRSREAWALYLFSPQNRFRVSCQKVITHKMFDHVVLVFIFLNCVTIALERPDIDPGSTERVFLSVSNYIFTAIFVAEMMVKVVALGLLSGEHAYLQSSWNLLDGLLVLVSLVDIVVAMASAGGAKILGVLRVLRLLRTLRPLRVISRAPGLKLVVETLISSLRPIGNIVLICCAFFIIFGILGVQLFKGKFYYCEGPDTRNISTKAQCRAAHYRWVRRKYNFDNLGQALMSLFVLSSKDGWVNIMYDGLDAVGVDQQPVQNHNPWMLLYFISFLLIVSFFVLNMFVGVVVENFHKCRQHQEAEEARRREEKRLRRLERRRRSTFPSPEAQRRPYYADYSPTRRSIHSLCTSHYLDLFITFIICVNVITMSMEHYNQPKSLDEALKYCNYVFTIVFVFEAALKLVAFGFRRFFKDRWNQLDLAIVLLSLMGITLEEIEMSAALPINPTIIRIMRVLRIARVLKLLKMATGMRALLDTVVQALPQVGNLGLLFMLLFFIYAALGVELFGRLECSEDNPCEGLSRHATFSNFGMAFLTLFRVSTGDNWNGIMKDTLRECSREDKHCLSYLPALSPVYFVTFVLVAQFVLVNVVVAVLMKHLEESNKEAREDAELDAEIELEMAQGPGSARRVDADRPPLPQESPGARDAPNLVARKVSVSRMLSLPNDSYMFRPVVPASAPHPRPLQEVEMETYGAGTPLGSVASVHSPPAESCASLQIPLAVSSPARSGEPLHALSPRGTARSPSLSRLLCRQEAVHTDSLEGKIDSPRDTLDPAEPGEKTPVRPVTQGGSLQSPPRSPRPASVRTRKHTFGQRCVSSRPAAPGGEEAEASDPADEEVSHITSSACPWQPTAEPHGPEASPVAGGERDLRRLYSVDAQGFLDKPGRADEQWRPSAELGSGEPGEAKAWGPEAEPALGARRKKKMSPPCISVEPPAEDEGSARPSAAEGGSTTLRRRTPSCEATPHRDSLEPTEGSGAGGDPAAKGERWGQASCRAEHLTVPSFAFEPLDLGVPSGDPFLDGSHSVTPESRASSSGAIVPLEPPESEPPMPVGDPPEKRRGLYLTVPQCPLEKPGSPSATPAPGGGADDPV
structure (smiles),measurement,setting,value
CCCCCCc1cn([C@H]2C[C@H](O)[C@@H](CO)O2)c(=O)[nH]c1=O,GI50,P388/ADR,> 100 µM (inactive)
same,GI50,P388,> 100 µM (inactive)
same,GI50,SN12K1,> 100 µM (inactive)
O=C(OCC1CC(c2ccccn2)=NO1)c1ccc(Br)cc1 (stereo not given),IC50,[1],> 64 µM (inactive)
CCOC(=O)/C=C/c1c[nH]c(=O)[nH]c1=O,GI50,P388/ADR,> 66.4 µM (inactive)
same,GI50,P388,> 75 µM (inactive)
same,GI50,SN12K1,> 75 µM (inactive)
CCOC(=O)CCC(NC(=O)c1ccc(NCN2C(=O)CCC2=O)cc1)C(=O)OCC (stereo not given),IC50,Estrogen receptor beta,> 50 µM (not active)
O=C(O)C1C2C=CC(C2)C1C(=O)NC1CCN(Cc2ccccc2)CC1 (stereo not given),EC50,[2],5.31 µM (active)
O=C(CN1C(=O)NC2(CCCc3ccccc32)C1=O)c1ccc(Br)cc1 (stereo not given),AC50,[3],> 100 µM (inactive)
O=S(=O)(NCCc1ccc(F)cc1)c1cccc2cccnc12,IC50,[1],50 µM (inactive)
O=C(c1cccn2c(=O)c3cc(Cl)ccc3nc12)N1CCN(Cc2ccc3c(c2)OCO3)CC1,IC50,[1],> 64 µM (inactive)
N=C1/C(=C/c2cccn2Cc2ccc(Cl)cc2)C(=O)N=C2SC=CN12,IC50,SUMO-activating enzyme,47.6 µM (active)
COc1ccc(C(c2sc3nc(C)nn3c2O)N2CCc3ccccc3C2)cc1 (stereo not given),IC50,[4],9.88 µM (active)
Cc1ccc(C(=O)Nc2nc(-c3cccnc3)cs2)o1,IC50,Estrogen receptor beta,21.2 µM (active)
Nc1ncnc2c1ncn2[C@@H]1O[C@H](CNCc2ccc(OCC(=O)Nc3ccccn3)cc2)[C@@H](O)[C@H]1O,AC50,[3],> 100 µM (inactive)
O=C(NCc1ccco1)C1(S(=O)(=O)c2ccc(Cl)cc2)CC1,IC50,Estrogen receptor beta,> 50 µM (not active)
CCN(CC)CCN=C(S)Nc1ccc2nc(N3CCCC3)cc(C)c2c1,AC50,[5],3.9 µM (active)
same,AC50,[6],> 20 µM (inactive)
CC1CCCN(c2nc3ccccc3nc2C(C#N)S(=O)(=O)c2ccccc2)C1 (stereo not given),IC50,SUMO-activating enzyme,22.1 µM (active)
CCN1CCCC1CNC(=O)c1cc2c(OC)cccc2[nH]1 (stereo not given),EC50,[2],6.68 µM (active)
CCCCN=C(S)Nc1ccc2nc(N3CCN(CC)CC3)cc(C)c2c1,AC50,[5],25.9 µM (active)
CCc1cccc(NC(=O)CN2C(=O)NC3(CCCCCCC3)C2=O)c1,AC50,[3],> 100 µM (inactive)
Cc1ccc2cc(C#N)c(NCCNC(S)=NCCCN(C)C)nc2c1C,AC50,[5],16.9 µM (active)
same,CC50,[7],13.2 µM (active)
same,CC50,Vero [8],15.1 µM (active)
same,IC50,Vero [9],> 25 µM (active)
COC(=O)C1=C(C(=O)OC)SC(=C2C(=S)C(C)(C)N(C(=O)C3CC3)c3ccccc32)S1,IC50,[4],6.47 µM (active)
Cc1cc(-c2nn(-c3ccccc3F)cc2CNCCc2c[nH]cn2)c(C)s1,EC50,[2],0.0427 µM (active)
O=C(O)c1ccc2c(c1)C(=O)N(c1ccc(Nc3ccccc3)cc1)C2=O,AC50,[10],25.8 µM (active)
same,AC50,[3],> 100 µM (inactive)
O=C(CS(=O)(=O)Cc1ccccc1)Nc1ccc(S(=O)(=O)N2CCCCCC2)cc1,EC50,[11],4.62 µM (active)
same,AC50,[3],80.8 µM (active)
Cc1cccc(S(=O)(=O)Nc2nc3ccccc3nc2Nc2cccc(C(=O)O)c2)c1,AC50,[3],91.1 µM (active)
O=C(Nc1ccc2c(c1)CCCN2C(=O)c1cccs1)c1ccccc1,CC50,Vero [12],> 40 µM (active)

# — ChEMBL document CHEMBL1201862, “PubChem BioAssay data set” (2004)
